# Source: patent US20230278983A1, “INDOLE DERIVATIVES AND USES THEREOF FOR TREATING A CANCER” (Universite Claude Bernard Lyon 1, priority 2020, published 2023)
# How the values were obtained:
# 786-O cells = assay: Cell death, IncuCyte propidium iodide live-cell imaging; assay type: cell-based, human
# A549 and MDA-MB231 cells = assay: Immunoblotting of CK2-dependent substrate phosphorylation and apoptosis markers; assay type: cell-based, human; details: A549 24 hours, MDA-MB231 48 hours
# [1] = tested on: MCF10-A cells (WT and CK2β-depleted); assay: Cell death, IncuCyte propidium iodide live-cell imaging; assay type: cell-based; details: n=5
# RPTEC cells = assay: as above; assay type: cell-based; details: 48 hours, 1 μM AB668 with 5 μM tariquidar (n=5)
# 786-O and RPTEC cells = assay: Immunoblotting of CK2-dependent substrate phosphorylation and apoptosis markers; assay type: cell-based; details: 48 hours or 24 hours, increasing concentrations
# MDA-MB231 cells = assay: Cell death, IncuCyte propidium iodide live-cell imaging; assay type: cell-based, human; details: 48 hours, increasing concentrations
smiles,measurement,setting,value
"CC(C)COC(=O)c1[nH]c2ccc(F)cc2c1-c1cn(CC2CCN(CCNS(=O)(=O)c3ccc(CC(C)C)cc3)CC2)nn1 [AB668, Isobutyl 5-fluoro-3-(1-((1-(2-((4-isobutylphenyl)sulfonamido)ethyl)piperidin-4-yl)methyl)-1H-1,2,3-triazol-4-yl)-1H-indole-2-carboxylate]",Cell death induction in RCC lines compared to normal cells,"786-O cells; 24 hours, 786-O (VHL+/−) at 1 μM, RPTEC at 10 μM (n=5)",much more efficient in inducing cell death in RCC lines
same,"Sensitivity to compound-mediated cell death, 786-O versus RPTEC or HEK 293","786-O cells; 36 hours, increasing concentrations (n=4 to 6)",much more sensitive
same,Cell death induction compared to CX-4945 and sunitinib,786-O cells; at 5 and 2.5 μM,much more efficient in inducing cell death
same,CK2-dependent substrate phosphorylation and apoptosis (western blot),A549 and MDA-MB231 cells,inhibit CK2-dependent substrate phosphorylation and induce apoptosis in different cancer cell lines
same,Cell death in CK2β-depleted versus WT cells,[1],more pronounced in CK2β-depleted cells than in WT cells
same,Effect of P-glycoprotein inhibitor tariquidar on compound effect,RPTEC cells,has not changed the effect of AB668
same,CK2-dependent substrate phosphorylation and apoptosis (western blot),786-O and RPTEC cells,inhibit CK2-dependent substrate phosphorylation in cells and induce apoptosis
same,"Sensitivity to compound-mediated cell death, MDA-MB231 versus normal MCF10A",MDA-MB231 cells,much more sensitive
